# Data: US20150025236A1, “PROCESS FOR THE PREPARATION OF STABLE CRYSTALLINE FORM-I OF LINEZOLID, SUBSTANTIALLY FREE OF RESIDUAL SOLVENT” (Jubilant Life Sciences Limited, priority 2012, published 2015)
# Experiment: Stability study: determination of linezolid Form-II content in linezolid Form-I (polymorph status by XRD)
smiles,measurement,setting,value
"CC(=O)NC[C@H]1CN(c2ccc(N3CCOCC3)c(F)c2)C(=O)O1 [Linezolid Form-I, (S)—N-[[3-(3-fluoro-4-morpholinylphenyl)-2-oxo-5-oxazolidinyl]methyl]acetamide]",Polymorphic stability (formation of polymorphic impurity Form-II),"containing residual solvent(s), though complying with the regulatory norms",undergoes transformation into Form II
same,Time stable during stability study,different conditions of relative humidity (RH) and temperature (Table-1),up to 12 months
same,Polymorphic stability (formation of polymorphic impurity Form-II),substantially free of solvent(s),"does not generate polymorphic impurity, Form-II"
